# Measurements as given in patent publication US20240246937A1 (MERCK SHARP & DOHME LLC, priority 2021, published 2024).
# Biological target: recombinant IL4I1 (Homo sapiens (Human), UniProt Q96RQ9)
# Assay: IL4I1 Enzymatic Assay (Amplex Red/HRP coupled fluorescence detection of H2O2)
# Type: biochemical
# Conditions: 240 min; recombinant IL4I1, four-hour pre-incubation with compound
# Outline: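 Ten-point, 1:3 compound titrations were fitted by four-parameter sigmoidal regression to give EC50. Resorufin fluorescence (544/590 nm) from Amplex Red/HRP-coupled H2O2 detection was read 120 min after adding 1 mM each aromatic amino acid to 1 nM IL4I1, following a 4 h compound pre-incubation in pH 7.0 Hepes buffer.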
# Sequence of recombinant IL4I1 (Q96RQ9 22-567): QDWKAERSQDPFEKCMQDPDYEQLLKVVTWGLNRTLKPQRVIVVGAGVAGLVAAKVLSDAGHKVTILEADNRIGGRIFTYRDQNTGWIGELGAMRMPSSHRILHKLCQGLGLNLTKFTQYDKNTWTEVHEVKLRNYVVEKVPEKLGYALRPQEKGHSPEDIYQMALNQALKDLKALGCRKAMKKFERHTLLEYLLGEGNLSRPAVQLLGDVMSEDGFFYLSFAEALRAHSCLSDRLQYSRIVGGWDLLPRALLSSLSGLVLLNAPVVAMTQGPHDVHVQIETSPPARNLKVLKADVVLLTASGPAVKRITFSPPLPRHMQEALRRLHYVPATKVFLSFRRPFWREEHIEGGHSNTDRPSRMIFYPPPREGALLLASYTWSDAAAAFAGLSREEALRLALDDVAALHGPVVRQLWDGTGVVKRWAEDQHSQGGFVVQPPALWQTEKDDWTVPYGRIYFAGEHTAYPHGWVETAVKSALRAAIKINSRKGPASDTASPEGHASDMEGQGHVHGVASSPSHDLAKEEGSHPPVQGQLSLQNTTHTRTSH
row,Compound,EC50 [nM]
1,"O=c1c(=O)n(C2CCCC2)ccn1Cc1ccc(-c2cccc(F)c2)nn1 [Example 59, 1-cyclopentyl-4-((6-(3-fluorophenyl)pyridazin-3-yl)methyl)-1,4-dihydropyrazine-2,3-dione]",5
2,"O=C1C(=O)N(C23CC(C2)C3)CCN1Cc1cc(-c2ccccc2)on1 [Example 146, 1-(bicyclo[1.1.1]pentan-1-yl)-4-((5-phenylisoxazol-3-yl)methyl)piperazine-2,3-dione]",3
3,"O=c1c(=O)n(C2CCC2)ccn1Cc1cc(-c2ccc(F)cc2)no1 [Example 159, 1-cyclobutyl-4-((3-(4-fluorophenyl)isoxazol-5-yl)methyl)-1,4-dihydropyrazine-2,3-dione]",1
4,"O=C1C(=O)N(C2CCC2)CCN1Cc1ccc(-c2ccccc2F)nn1 [Example 1, 1-cyclobutyl-4-((6-(2-fluorophenyl)pyridazin-3-yl)methyl)piperazine-2,3-dione]",10
5,"O=c1c(=O)n(C23CC(F)(C2)C3)ccn1Cc1ccc(-c2ccccc2F)nn1 [Example 201, 1-(3-fluorobicyclo[1.1.1]pentan-1-yl)-4-((6-(2-fluorophenyl)pyridazin-3-yl)methyl)-1,4-dihydropyrazine-2,3-dione]",30
6,"O=C1C(=O)N(C2CCC2)CCN1Cc1ncc(-c2cccc(F)c2)s1 [Example 425, 1-cyclobutyl-4-((5-(3-fluorophenyl)thiazol-2-yl)methyl)piperazine-2,3-dione]",8
7,"O=c1c(=O)n(C2CCC2)ccn1Cc1cc(-c2ccccn2)no1 [Example 161, 1-cyclobutyl-4-((3-(pyridin-2-yl)isoxazol-5-yl)methyl)-1,4-dihydropyrazine-2,3-dione]",5
8,"O=C1C(=O)N(C2CC(c3ccccc3)C2)CCN1Cc1ccc(-c2ccccc2)nc1 (stereo not drawn) [Example 142, 1-(3-phenylcyclobutyl)-4-((6-phenylpyridin-3-yl)methyl)piperazine-2,3-dione]",3
9,"O=C1C(=O)N(C2CCC2)CCN1Cc1ccc(-c2cn[nH]c2)nn1 [Example 25, 1-((6-(1H-pyrazol-4-yl)pyridazin-3-yl)methyl)-4-cyclobutylpiperazine-2,3-dione]",21
10,"O=C1C(=O)N(C23CC(C2)C3)CCN1Cc1nnc(-c2ccc(F)cc2)s1 [Example 32, 1-(bicyclo[1.1.1]pentan-1-yl)-4-((5-(4-fluorophenyl)-1,3,4-thiadiazol-2-yl)methyl)piperazine-2,3-dione]",5
11,"O=C1C(=O)N(C2(CF)CC2)CCN1Cc1ccc(-c2ccccc2F)nn1 [Example 195, 1-(1-(fluoromethyl)cyclopropyl)-4-((6-(2-fluorophenyl)pyridazin-3-yl)methyl)piperazine-2,3-dione]",48
12,"O=C1C(=O)N(C2CCCC2)CCN1CC12CC(c3ccccc3)(C1)C2 [Example 132, 1-cyclopentyl-4-((3-phenylbicyclo[1.1.1]pentan-1-yl)methyl)piperazine-2,3-dione]",15
13,"O=C1C(=O)N(C2CCCC2)CCN1Cc1nnc(N2CC3CC3C2)s1 (stereo not drawn) [Example 313, 1-((5-(3-azabicyclo[3.1.0]hexan-3-yl)-1,3,4-thiadiazol-2-yl)methyl)-4-cyclopentylpiperazine-2,3-dione]",47
14,"O=C1C(=O)N(C2CCC2)CCN1Cc1nnc(-c2ccccc2F)s1 [Example 33, 1-cyclobutyl-4-((5-(2-fluorophenyl)-1,3,4-thiadiazol-2-yl)methyl)piperazine-2,3-dione]",8
15,"O=c1c(=O)n([C@H]2C[C@H]3C[C@H]3C2)ccn1Cc1ccc(-n2ccnn2)nn1 [Example 331, 1-((6-(1H-1,2,3-triazol-1-yl)pyridazin-3-yl)methyl)-4-((cis)-bicyclo[3.1.0]hexan-3-yl)-1,4-dihydropyrazine-2,3-dione]",9
16,"O=C1C(=O)N(C2CCCC2)CCN1Cc1ccc(-c2nccs2)nn1 [Example 362, 1-cyclopentyl-4-((6-(thiazol-2-yl)pyridazin-3-yl)methyl)piperazine-2,3-dione]",22
17,"O=C1C(=O)N(C2(c3ccncc3)CC2)CCN1Cc1nnc(-c2ccccc2)s1 [Example 304, 1-((5-phenyl-1,3,4-thiadiazol-2-yl)methyl)-4-(1-(pyridin-4-yl)cyclopropyl)piperazine-2,3-dione]",98
18,"CC(Cc1nnc(-c2ccccc2)s1)N1CCN(C2CCCC2)C(=O)C1=O (stereo not drawn) [Example 352, 1-cyclopentyl-4-(1-(5-phenyl-1,3,4-thiadiazol-2-yl)propan-2-yl)piperazine-2,3-dione]",13
19,"O=c1c(=O)n(C2CCC2)ccn1Cc1ccc(-n2ccnn2)nc1 [Example 410, 1-((6-(1H-1,2,3-triazol-1-yl)pyridin-3-yl)methyl)-4-cyclobutyl-1,4-dihydropyrazine-2,3-dione]",5
20,"O=c1c(=O)n(C23CC(C2)C3)ccn1Cc1ccc(-n2nccn2)cn1 [Example 360, 1-((5-(2H-1,2,3-triazol-2-yl)pyridin-2-yl)methyl)-4-(bicyclo[1.1.1]pentan-1-yl)-1,4-dihydropyrazine-2,3-dione]",16

row,Compound,EC50 [nM]
1,"O=C1C(=O)N(C23CC(C2)C3)CCN1CC12CC(c3ccccc3)(C1)C2(F)F [Example 191, 1-(bicyclo[1.1.1]pentan-1-yl)-4-((2,2-difluoro-3-phenylbicyclo[1.1.1]pentan-1-yl)methyl)piperazine-2,3-dione]",35
2,"O=c1c(=O)n(C23CC(C2)C3)ccn1Cc1cc(-c2cccnc2)no1 [Example 223, 1-(bicyclo[1.1.1]pentan-1-yl)-4-((3-(pyridin-3-yl)isoxazol-5-yl)methyl)-1,4-dihydropyrazine-2,3-dione]",10
3,"N#CC1(n2ccn(Cc3ccc(-n4cccn4)nc3)c(=O)c2=O)CC1 [Example 389, 1-(4-((6-(1H-pyrazol-1-yl)pyridin-3-yl)methyl)-2,3-dioxo-3,4-dihydropyrazin-1(2H)-yl)cyclopropane-1-carbonitrile]",369
4,"O=c1c(=O)n(C2CCC2)ccn1Cc1cnn(-c2ccccc2)c1 [Example 160, 1-cyclobutyl-4-((1-phenyl-1H-pyrazol-4-yl)methyl)-1,4-dihydropyrazine-2,3-dione]",5
5,"CC1(N2CCN(Cc3nnc(-c4ccccc4)s3)C(=O)C2=O)CCCCC1 [Example 306, 1-(1-methylcyclohexyl)-4-((5-phenyl-1,3,4-thiadiazol-2-yl)methyl)piperazine-2,3-dione]",27
6,"O=C1C(=O)N(C23CC(C2)C3)CCN1Cc1cc(-c2ccccc2)no1 [Example 171, 1-(bicyclo[1.1.1]pentan-1-yl)-4-((3-phenylisoxazol-5-yl)methyl)piperazine-2,3-dione]",6
7,"O=C1C(=O)N(C23CC(F)(C2)C3)CCN1Cc1ccc(-n2ccnn2)nn1 [Example 249, 1-((6-(1H-1,2,3-triazol-1-yl)pyridazin-3-yl)methyl)-4-(3-fluorobicyclo[1.1.1]pentan-1-yl)piperazine-2,3-dione]",148
8,"O=c1c(=O)n(C2CCCC2)ccn1Cc1cc(-c2ccccc2F)no1 [Example 156, 1-cyclopentyl-4-((3-(2-fluorophenyl)isoxazol-5-yl)methyl)-1,4-dihydropyrazine-2,3-dione]",2
9,"O=C1C(=O)N(C2CCCC2)CCN1Cc1ncc(-c2ccccc2)cn1 [Example 4, 1-cyclopentyl-4-((5-phenylpyrimidin-2-yl)methyl)piperazine-2,3-dione]",19
10,"CC1(N2CCN(Cc3nnc(-c4ccccc4)s3)C(=O)C2=O)COC1 [Example 302, 1-(3-methyloxetan-3-yl)-4-((5-phenyl-1,3,4-thiadiazol-2-yl)methyl)piperazine-2,3-dione]",69
11,"Cc1ccccc1-c1nnc(CN2CCN(C34CC(C3)C4)C(=O)C2=O)s1 [Example 84, 1-(bicyclo[1.1.1]pentan-1-yl)-4-((5-(o-tolyl)-1,3,4-thiadiazol-2-yl)methyl)piperazine-2,3-dione]",13
12,"O=C1C(=O)N(C23CC(C2)C3)CCN1Cc1ccc(-c2ccccc2F)nn1 [Example 66, 1-(bicyclo[1.1.1]pentan-1-yl)-4-((6-(2-fluorophenyl)pyridazin-3-yl)methyl)piperazine-2,3-dione]",7
13,"O=c1c(=O)n(C23CC(F)(C2)C3)ccn1Cc1ccc(-n2ccnn2)cn1 [Example 262, 1-((5-(1H-1,2,3-triazol-1-yl)pyridin-2-yl)methyl)-4-(3-fluorobicyclo[1.1.1]pentan-1-yl)-1,4-dihydropyrazine-2,3-dione]",868
14,"O=C1C(=O)N(C2CCCC2)CCN1Cc1ccc(-c2cncs2)nc1 [Example 17, 1-cyclopentyl-4-((6-(thiazol-5-yl)pyridin-3-yl)methyl)piperazine-2,3-dione]",7
15,"O=C1C(=O)N(C2CCC2)CCN1Cc1ncc(-c2ccccc2)cn1 [Example 277, 1-cyclobutyl-4-((5-phenylpyrimidin-2-yl)methyl)piperazine-2,3-dione]",24
16,"O=c1c(=O)n(C2(CF)CC2)ccn1Cc1ccc(-n2ccnn2)nc1 [Example 235, 1-((6-(1H-1,2,3-triazol-1-yl)pyridin-3-yl)methyl)-4-(1-(fluoromethyl)cyclopropyl)-1,4-dihydropyrazine-2,3-dione]",18
17,"O=C1C(=O)N(C2(CF)CC2)CCN1Cc1nnc(-c2ccccc2F)s1 [Example 194, 1-(1-(fluoromethyl)cyclopropyl)-4-((5-(2-fluorophenyl)-1,3,4-thiadiazol-2-yl)methyl)piperazine-2,3-dione]",41
18,"O=C1C(=O)N([C@H]2C[C@@H](c3ccccc3)C2)CCN1Cc1ccc(-c2ccccc2)nc1 [Example 266A, cis-1-(3-phenylcyclobutyl)-4-((6-phenylpyridin-3-yl)methyl)piperazine-2,3-dione]",4
19,"CC(C)(C)CN1CCN(Cc2ncc(-c3ccccc3)cn2)C(=O)C1=O [Example 287, 1-neopentyl-4-((5-phenylpyrimidin-2-yl)methyl)piperazine-2,3-dione]",34
